Laboratory results: US9757350B2, “Small molecule inhibitors of replication protein A that also act synergistically with cisplatin” (Indiana University Research and Technology Corp., priority 2010, dated 2017)
“Also recorded” adds a separate entry of the source.

What was measured:
[1] = system: p21; assay: Quantitative real-time PCR of p21 mRNA; format: cell-based; conditions: A549, versus untreated control
Protocol: Real-Time PCR—A549 cells were plated in 10 cm dishes at 1.5×10^6, allowed to adhere, and treated for 24-48 hours with cisplatin or SMIs (5 μM). Referring now to FIG. 16B, Western blot of cells treated sequentially. For sequential treatment, A549 cells were exposed to cisplatin for 24 hours followed by the addition of SMIs for another 24 hours as above. Referring now to FIG. 16A, A549 cells were treated sequentially or concurrently with cisplatin (5 μM) and MCI13E or MCI13F for 24 total hours. Lysates were probed for p53-ser15-phosphorylation or phosphorylated-ATM. GAPDH was probed as a loading control. Concurrently treated cells were incubated simultaneously with both cisplatin and MCIs for 24 hours. RNA was extracted using RNeasy minikit (Qiagen, Germantown, Md.) per manufacturer's protocol. cDNA was generated using Applied Biosystem's (ABI) High Capacity RNA-to-cDNA kit. Validated gene primer/probe sets, also from ABI, were used for Quantitative Real Time-PCR. ABI's ΔΔCT Relative Quantification methodology was used for the analyses (applied Biosystems). Data were normalized to the housekeeping gene GAPDH and calibrated to the mock treated samples. Results presented are the average of two separate cell treatments/RNA isolations with duplicate Taqman Assays per RNA sample set.
Referring now to FIG. 15A. Plot of Quantitative Real Time PCR analyses of mRNA expression changes of A549 cells treated with MCI13E, MCI13F and Cisplatin. Data represents the average of four separate Q-RT PCR Assays. Genes of interest were normalized to GAPDH transcript levels, and are presented as fold changes relative to untreated cell samples. Cisplatin treatment increases transcription of DDB2 (A). Referring now to FIG. 15B. Bar graph of P21/GAPDH measured in cells subjected to different treatment schemes. Referring now to FIG. 15C. Bar graph of XPC/GAPDH measured under different treatment regimes XPC Concurrent MCI/Cisplatin treated cells show a decrease in gene transcription when compared to cells treated with Cisplatin alone (24 hour).

[2] = target: T1, RPA DBD-A/B (Homo sapiens, UniProt P27694); assay: Reversibility of DBD-A/B inhibition: dialysis, then fluorescence polarization; format: binding; conditions: overnight dialysis, then FP with F-dT12
T1 construct: made in house; host or cells: E. coli BL21(DE3)
T1 sequence (P27694 181-422 limits assumed): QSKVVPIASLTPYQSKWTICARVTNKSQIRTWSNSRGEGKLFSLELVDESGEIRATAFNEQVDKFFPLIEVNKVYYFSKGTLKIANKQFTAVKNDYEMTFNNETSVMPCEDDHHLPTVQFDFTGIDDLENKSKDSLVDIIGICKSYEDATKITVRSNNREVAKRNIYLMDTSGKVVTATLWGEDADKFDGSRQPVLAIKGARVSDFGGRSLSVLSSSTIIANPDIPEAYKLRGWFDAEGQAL
Protocol: In an experiment reported herein, DBD-A/B was incubated with CheSS19 and then the reaction mix dialyzed overnight to remove dissociable inhibitor. […] Referring now to FIG. 3D. Bar graph showing results of fluorescence polarization analysis of CheSS19 inactivated RPA DBD-A/B. Referring now to FIG. 3D, RPA DBD-A/B was pre-incubated with vehicle (1% DMSO) or CheSS19 (1 pmol in 1% DMSO) for 30 minutes at 37° C. Following incubation, the reaction mix was dialyzed versus H1 buffer overnight at 4° C. The protein was recovered and DNA binding activity measured by FP analysis of binding to an F-dT12 substrate was performed as described in “Methods”. Bar 1, DNA control, Bar 2, control vehicle treated DBD-A/B, Bar 3, Chess19 treated DBD-A/B. The data represent the mean and range of two independent experiments.
Fluorescence polarization experiments were preformed as previously described (21). SMIs were diluted in H1 buffer (10 mM HEPES, pH 7.2, 1 mM DTT, 0.01% NP-40 and 100 mM NaCl) and the final DMSO concentration was kept below 1%.
In order to assess the reversibility of select SMIs, the indicated SMI was pre-incubated with RPA or the DBD-A/B construct for 30 minutes at room temperature. […] The resulting protein was recovered and concentration determined by Bradford analysis. […]

[3] = target: T2, full-length heterotrimeric RPA (Homo sapiens, UniProt P27694); conditions: reference 9; cited from earlier work
T2 construct: Human full-length, un-tagged heterotrimeric RPA (RPA) was purified as previously describe; made in house
T2 sequence (P27694 whole entry): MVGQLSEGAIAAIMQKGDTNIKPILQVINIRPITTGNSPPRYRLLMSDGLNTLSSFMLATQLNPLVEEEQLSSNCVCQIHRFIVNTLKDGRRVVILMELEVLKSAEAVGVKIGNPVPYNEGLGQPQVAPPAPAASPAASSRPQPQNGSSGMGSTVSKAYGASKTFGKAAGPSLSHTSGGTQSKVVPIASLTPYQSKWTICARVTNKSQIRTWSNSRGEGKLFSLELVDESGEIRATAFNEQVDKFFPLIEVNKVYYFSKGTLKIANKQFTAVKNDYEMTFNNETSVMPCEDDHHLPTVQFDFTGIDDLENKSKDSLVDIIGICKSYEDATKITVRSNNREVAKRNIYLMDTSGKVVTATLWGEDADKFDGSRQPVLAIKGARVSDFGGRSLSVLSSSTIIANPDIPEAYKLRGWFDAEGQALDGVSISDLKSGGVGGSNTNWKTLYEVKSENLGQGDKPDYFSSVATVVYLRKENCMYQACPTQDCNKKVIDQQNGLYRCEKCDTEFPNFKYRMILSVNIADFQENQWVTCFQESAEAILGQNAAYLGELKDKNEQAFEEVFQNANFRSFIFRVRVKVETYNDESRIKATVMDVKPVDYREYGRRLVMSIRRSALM
T2 sequence (P15927 whole entry partner): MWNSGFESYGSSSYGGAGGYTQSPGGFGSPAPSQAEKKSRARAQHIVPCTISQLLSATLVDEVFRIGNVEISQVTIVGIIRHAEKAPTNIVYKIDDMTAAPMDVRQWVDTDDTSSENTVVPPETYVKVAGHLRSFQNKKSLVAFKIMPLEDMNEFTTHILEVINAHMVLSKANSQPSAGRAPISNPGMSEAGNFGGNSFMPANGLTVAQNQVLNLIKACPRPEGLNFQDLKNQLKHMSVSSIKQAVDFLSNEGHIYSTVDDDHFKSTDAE
T2 sequence (P35244 whole entry partner): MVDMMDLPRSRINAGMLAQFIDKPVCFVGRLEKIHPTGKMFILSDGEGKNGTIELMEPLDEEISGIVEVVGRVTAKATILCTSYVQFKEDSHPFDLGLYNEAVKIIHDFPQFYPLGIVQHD

[4] = target: T3, EcSSB (Escherichia coli, UniProt P0AGE0); assay: E. coli SSB DNA-binding EMSA; conditions: 0-200 μM, pre-incubated with protein
T3 construct: purchased Enzymatics, Beverly, Mass
T3 sequence (P0AGE0 2-178): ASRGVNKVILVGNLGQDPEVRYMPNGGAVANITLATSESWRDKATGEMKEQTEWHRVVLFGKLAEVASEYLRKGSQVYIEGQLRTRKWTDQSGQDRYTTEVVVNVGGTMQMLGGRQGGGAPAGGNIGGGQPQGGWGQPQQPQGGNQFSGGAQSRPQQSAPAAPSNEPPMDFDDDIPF
Protocol: In order to study the specificity of the CheSS19, and MCI13E/F compounds, their effects on two ssDNA binding proteins which use OB-folds for recognition and binding of ssDNA, E. coli SSB (6) and the Schizosaccharomyces pombe Pot1(DBD) domain (11) were studied. The EcSSB protein is a non-sequence-specific ssDNA binding protein, whereas the SpPot1(DBD) protein is a telomere-specific, ssDNA binding protein. In these experiments, protein was pre-incubated with the SMIs, as was done for the RPA experiments, prior to addition of radiolabeled ssDNA to the reactions.
Referring now to FIG. 6B. CheSS19 titration in EcSSB DNA-binding reactions. CheSS19 (0, 25, 50, 100, and 200 μM) was pre-incubated with EcSSB and binding reactions were carried out. Referring now to FIG. 6C. Titration of MCI13E and MCI13F in EcSSB DNA-binding reactions. Concentrations of MCI13E/F used were: 0, 25, 50, 100, and 200 μM. In all panels, the ‘Free’ ssDNA is indicated with an arrow and the ‘Bound’ ssDNA is indicated by brackets. All reactions were performed in the same order and manner as the RPA binding reactions. EcSSB binding was unaffected by CheSS19 and the MCI13E and MCI13F compounds […].
EMSAs were performed similarly to those for the RPA constructs, with the following exceptions. Reactions contained 25 nM of 5′-[^32P]-labeled 3Pc3 ssDNA and 3.3 nM (assuming homotetramer formation) SSB protein (Enzymatics, Beverly, Mass.). Reactions (20 μL) were carried out in 20 mM HEPES, pH 7.5, 1 mM DTT, 0.01% NP-40, 100 mM NaCl, and resolved by 6% native polyacrylamide gel electrophoresis at 25 mA for 2 hours. Gels were dried and quantified via phosphorimager analysis and ImageQuant software (Molecular Dynamics).

[5] = target: T2, full-length heterotrimeric RPA; assay: EMSA in vitro DNA binding assay, full-length heterotrimeric RPA; conditions: ssDNA substrate
Protocol: RPA. Human full-length, un-tagged heterotrimeric RPA (RPA) was purified as previously describe.
RPA and DBD-A/B Binding. EMSAs were performed as previously described (22) using a 30-base purine rich ssDNA substrate (3Pc3). Briefly, reactions contained 12.5 nM 5′-[^32P]-labeled 3Pc3 ssDNA and the indicated concentrations of RPA or DBD-A/B. Protein was pre-incubated with the indicated concentration of SMI for 30 minutes at 37° C. DNA was then added and reactions incubated for an additional 5 minutes at room temperature in a final reaction volume of 40 μL. Reactions were then resolved on a 6% native polyacrylamide gel and electrophoresed at 170 volts for 1 hour. Gels were dried and quantified via phosphorimager analysis and ImageQuant software (Molecular Dynamics).

[6] = target: T1, RPA DBD-A/B; assay: EMSA DNA binding assay, RPA DBD-A/B construct
Protocol: DBD-A/B. The sequence encoding the RPA p70 DNA binding domains A and B were subcloned from the hrRPA plasmid (provided by Dr. Marc Wold, University of Iowa) into the pET15b (Novagen) vector and the protein was expressed in BL21(DE3) cells (Stratagene) as previously described. Briefly, cells were grown to an OD600 of 0.8, induced with 0.5 mM isopropyl-1-thio-β-D-galactopyranoside (IPTG) at 37° C. for 2-3 hours. Small scale DBD-A/B preparations were obtained from 1 L cultures and following induction, cells were harvested by centrifugation at 700×g for 30 minutes at 4° C. The pellets were suspended in Buffer A (20 mM Tris, pH 7.5, 10% glycerol, 500 mM NaCl, 10 mM β-mercaptoethanol (BME) and 1 μg/mL phenylmethanesulfonylfluoride (PMSF), leupeptin and pepstatin) at 1 mL/gram of cells. The cells were lysed by sonication and insoluble material sedimented at 15,000×g for 30 minutes at 4° C. The supernatant was then loaded onto a 10 mL phosphocellulose column, equilibrated with Buffer A, and the flow-through material collected. Imidazole was added to 5 mM to the flow through which was then loaded onto a 2 mL nickel-NTA-agarose column. The column was then washed with Buffer A containing 50 mM imidazole after which protein was eluted from the column using a gradient from 50-500 mM imidazole. Fractions were analyzed for protein content using Bradford and SDS-PAGE analysis in addition to assessment of DNA binding activity as determined by anisotropy. Fractions containing the DBD-A/B protein were pooled and dialyzed overnight in Buffer B (1 mM HEPES, pH 7.2, 10 mM dithiothreitol (DTT), 50 mM NaCl and 1 μg/mL PMSF, pepstatin and leupeptin) and aliquots stored at −80° C.
RPA and DBD-A/B Binding. EMSAs were performed as previously described (22) using a 30-base purine rich ssDNA substrate (3Pc3). […] Gels were dried and quantified via phosphorimager analysis and ImageQuant software (Molecular Dynamics).

[7] = system: NSCLC cell lines A549 and H460; conditions: reference 1; cited from earlier work

For `N.N.[Cl][Pt][Cl]` [cisplatin, cis-diamminedichloroplatinum (II)], the “p21 mRNA expression, single agent” value [1] was “dramatic increase in p21 mRNA expression”.

For `O=C1OC(=O)[C@H]2C3C=CC(CC3)[C@@H]12` [CheSS19], the “Reversibility of DBD-A/B inhibition” value [2] is given as “inhibiting DBD-A/B in an irreversible manner”, the “Reversibility of full-length RPA inhibition (earlier report)” value [3] is given as “irreversible” and the “Effect on EcSSB ssDNA binding” value [4] is given as “unaffected”. For the same molecule, the “Inhibition of full-length RPA DNA binding” value [5] was “potent inhibitory activity” and the “Inhibition of DBD-A/B DNA binding” value [6] was “potent inhibitory activity; also recorded: inhibits the DNA binding activity of the DBD-A/B construct with similar potency to the heterotrimeric RPA preparation”.

For `CCOc1ccc2cc(C3CC(c4ccc(Br)cc4)=NN3C(=O)CCC(=O)O)c(Cl)nc2c1` (stereo not shown) [TDRL-505], the “Mode of cell death (earlier report)” value [7] is given as “cytotoxic via a non-apoptotic pathway”.
